The nature of series [1]: Acute oral toxicity testing (LD50). The settings on record: C57BI/6, mouse, in vivo. The method, then: Acute oral toxicity testing of intact nanospheres and individual components was carried out to determine the LD50 (median lethal dose) with C57BI/6 (Table 2).
Another series has as its system INS-1 cells. The series can be described thus: Cellular cytotoxicity by MTS after exposure to polymers and reagents. It is filed as cell-based. The settings on record: 1 mg/mL polymer or 0.05 mg/mL dye, 37° C., up to 48 hours post-exposure. The method, then: Cellular cytotoxicity following exposure to the polymers and reagents: INS-1 cells were incubated with the polymers and/or reagents (1 mg/mL polymer or 0.05 mg/mL dye) at 37° C., and cellular viability was determined by MTS (FIG. 5).

The next series concerns INS cells. Conditions: 0.2 mg/mL, 37° C.
In another series the test system is Cells. The settings on record: 0.2 mg/mL, 5 hr, 37° C.
In series [2] the test system is control uMUC-1-negative cell line U87. Description: In vitro specificity of CLIO-EPPT (flow cytometry, fluorescence microscopy). In kind it is cell-based, human. The text has this: (§1) FIG. 7 depicts a crosslinked iron oxide (CLIO)-EPPT multi-modal imaging probe. (A) The core protein of the MUC-1 tumor antigen. The immunodominant region of the tandem repeat is recognized by the EPPT1 peptide derived from an ASM2 monoclonal antibody (45). (B) Synthesis (left) and scheme of the probe (right). […] Left, overlay of the bright field and FITC channel; middle, overlay of the bright field and Cy5.5 channel; right, overlay of the FITC and Cy5.5 channels. […] Magnification bars=10 μm.
(§2) In vitro specificity of CLIO-EPPT for adenocarcinomas was further characterized by flow cytometric analysis of probe binding to selected adenocarcinoma and control cell lines (FIG. 7E). […] Fluorescence microscopy experiments, in which adenocarcinoma and control cells were incubated with the probe, confirmed the fluorescence-activated cell sorting data.
A general note: In flow cytometry, cells or beads pass a laser one at a time.

In series [3] the test system is adenocarcinoma cell lines (BT-20, CAPAN-2, ChaGo-K-1, HT-29, LS174T). The series is described as above. It is filed as cell-based, human.
From the text: as §1, §2

The test system of series [4] is uMUC-1-positive (LS174T) tumors. Description: In vivo MR and NIRF imaging of tumor-bearing animals. Further details: species or system mice. The method, then:
(§3) (B) White light (left), near-infrared fluorescent (NIRF) (middle) images, and a color-coded map (right) of mice bearing bilateral underglycosylated mucin-1 antigen uMUC-1-negative (U87) and uMUC-1-positive (LS174T) tumors. NIRF imaging was performed immediately after the MRI session. […] (D) Dual channel fluorescence microscopy of the frozen LS 174T tumor section. Green channel fluorescence from the FITC-labeled EPPT peptide (left) colocalized with Cy5.5 fluorescence derived from Cy5.5-labeled cross-linked iron oxides (middle). […] Magnification bar=10 μm.
(§4) In vivo ^1H-MR imaging was performed on animals bearing bilateral uMUC-1-positive and uMUC-1-negative tumors before and 24 hours after probe injection. […] The same animals were subjected to optical imaging immediately after the MR-imaging session. […] Fluorescence microscopy of excised tumors and muscle tissue gave results consistent with NIRF images. From biodistribution studies with ^125I-CLIO-EPPT, on average uMUC-1-positive tumors accumulated 3.4 times more of the probe than uMUC-1-negative tumors.

Series [5] concerns uMUC-1-negative (U87) tumors. The series is described as above. The settings on record: control tumors. Further details: species or system mice. The method, then: as §3, §4
Series [6] deals with uMUC-1-positive tumors versus uMUC-1-negative tumors. Further details: species or system mice. Conditions: mouse, in vivo. The method, then: as §4
Series [7] is described as follows: Dynamic light scattering of CLIO-EPPT probes. It is filed as physicochemical. The source says:
To extend these studies using perfluoro labeled polymer, the same FITC-labeled EPPT1 peptide was used. […] The study with the CLIO-EPPT nanoparticles established test procedures which will be used.

For series [8], the system named is human uMUC-1-positive tumor cell lines. Description: Cell binding assay with 125I-labeled CLIO-EPPT. It is filed as cell-based.
From the text: as §1
(§5) Cell binding assays (FIG. 7D) were carried out with a variety of human uMUC-1-positive tumor cell lines: ZR-75-1 (breast), BT-20 (breast), HT29 (colon), CAPAN-2 (pancreas), LS174T (colon), and ChaGo-K-1 (lung) as well as human control uMUC-1-negative tumor and normal cell lines.

Series [9] concerns human control uMUC-1-negative tumor and normal cell lines. The series can be described thus: Cell binding assay with 125I-labeled CLIO-EPPT. In kind it is cell-based. The settings on record: 1 hour incubation.
From the text: as §1, §5

Series [10] deals with underglycosylated mucin-1 antigen (uMUC-1) (Homo sapiens, UniProt P15941). Conditions: read-out: binding constant Kd; cited from earlier work.

pKd: −log10 of the molar value. “Also recorded” adds a separate entry of the source. Where no end group is shown, it is not given here. The star is where a group is joined. Acm = CC(=O)NC*

underglycosylated mucin-1 antigen (uMUC-1), sequence (P15941 24-1255): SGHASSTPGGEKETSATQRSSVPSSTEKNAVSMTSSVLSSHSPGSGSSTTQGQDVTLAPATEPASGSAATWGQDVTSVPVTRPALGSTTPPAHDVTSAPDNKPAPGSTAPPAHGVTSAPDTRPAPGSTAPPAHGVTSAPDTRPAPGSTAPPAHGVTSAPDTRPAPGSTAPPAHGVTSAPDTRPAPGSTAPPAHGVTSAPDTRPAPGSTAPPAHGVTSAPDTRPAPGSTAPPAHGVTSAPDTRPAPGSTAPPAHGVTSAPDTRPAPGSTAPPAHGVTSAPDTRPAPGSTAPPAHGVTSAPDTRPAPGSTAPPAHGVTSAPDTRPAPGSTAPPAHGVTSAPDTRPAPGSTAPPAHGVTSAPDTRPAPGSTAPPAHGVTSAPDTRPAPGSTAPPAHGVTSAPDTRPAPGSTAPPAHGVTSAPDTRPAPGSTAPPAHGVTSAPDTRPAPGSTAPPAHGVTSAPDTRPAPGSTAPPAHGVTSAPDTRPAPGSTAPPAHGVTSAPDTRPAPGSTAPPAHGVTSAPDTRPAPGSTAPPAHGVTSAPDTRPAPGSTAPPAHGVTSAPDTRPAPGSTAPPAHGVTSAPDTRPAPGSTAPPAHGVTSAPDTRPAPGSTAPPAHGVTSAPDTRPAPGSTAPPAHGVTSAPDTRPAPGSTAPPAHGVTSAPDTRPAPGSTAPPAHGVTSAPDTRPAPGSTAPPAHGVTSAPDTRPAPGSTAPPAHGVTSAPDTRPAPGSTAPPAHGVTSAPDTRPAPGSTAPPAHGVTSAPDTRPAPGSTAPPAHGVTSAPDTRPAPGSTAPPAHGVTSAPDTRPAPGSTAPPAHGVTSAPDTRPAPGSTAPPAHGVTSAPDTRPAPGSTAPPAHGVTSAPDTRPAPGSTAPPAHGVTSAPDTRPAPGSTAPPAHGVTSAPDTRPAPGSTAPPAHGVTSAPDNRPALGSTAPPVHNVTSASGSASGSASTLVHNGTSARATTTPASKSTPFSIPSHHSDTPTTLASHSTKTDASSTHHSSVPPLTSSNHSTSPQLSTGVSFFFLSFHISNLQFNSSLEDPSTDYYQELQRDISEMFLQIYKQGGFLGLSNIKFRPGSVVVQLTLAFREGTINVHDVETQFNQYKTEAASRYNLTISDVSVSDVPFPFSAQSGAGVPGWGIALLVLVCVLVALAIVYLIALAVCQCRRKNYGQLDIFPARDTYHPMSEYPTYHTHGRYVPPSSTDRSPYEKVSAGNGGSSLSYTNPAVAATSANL

For the molecule `N[C@@H](CC(=O)O)C(=O)O` [Aspartic Acid], the LD50 in series [1] was 20000 mg/kg.

For the molecule `CCN(CC)c1ccc2c(-c3ccccc3C(=O)O)c3ccc(=[N+](CC)CC)cc-3oc2c1` [Rhodamine, Rhodamine B], the “cytotoxicity (cellular viability by MTS)” value in the series on INS-1 cells is recorded as “cytotoxic effects were readily observed”.

Take `COc1cccc2c1C(=O)c1c(O)c3c(c(O)c1C2=O)C[C@@](O)(C(=O)CO)C[C@@H]3O[C@H]1C[C@H](N)[C@H](O)[C@H](C)O1` [doxorubicin]: the “rate of cell death (MTS)” value in the series on INS cells was “comparable rate of cell death”. Moreover, in the series on Cells, the “intracellular localization (confocal microscopy)” value is “largely confined to the nucleus”.

Take “CLIO-EPPT: cross-linked iron oxide nanoparticle carrying Cy5.5 dye and FITC-labeled EPPT1 peptides on the dextran coat; radioiodinated for binding and biodistribution (YC(Acm)AREPPTRTFAYWG-{K(FITC)-Lys}; not fully specified; printed as Y-C(ACM)-A-R-E-P-P-T-R-T-F-A-Y-W-G-K(FITC)K; also: conjugated to CLIO iron oxide nanoparticle with Cy5.5 dye, radioiodinated)”: the “staining by fluorescence microscopy” value in series [2] (U87, FITC or Cy5.5 channels) is “no fluorescence was observed”; in series [3] (FITC and Cy5.5 channels), “stained strongly; also recorded: colocalization of the FITC and Cy5.5 signal”. Moreover, the “probe binding by flow cytometry” value was “no cell binding; also recorded: no shift” in [2] (control cell line U87); “bound the probe; also recorded: a shift in fluorescence in the FLI and FL4 channels” in [3]. Moreover, the “decrease in signal intensity of T2-weighted MR images” value in [4] (LS174T tumors, 24 h after probe injection) is reported as 52%; in series [5] (24 hours after probe injection), 13-18%. Also, the “dual channel fluorescence microscopy of excised tumors” value in [4] (uMUC-1-positive tumors) is “colocalization of FITC and Cy5.5 signals”; in series [5] it was “no signal”. Also, the NIRF signal entry in [4] (uMUC-1-positive tumors, immediately after MR-imaging session) is “high intensity NIRF signal; also recorded: strong NIRF signal”; in series [5], “no significant signal”. In addition, the “probe accumulation in uMUC-1-positive tumors relative to uMUC-1-negative tumors” value in series [6] is listed as 3.4 times. Besides, the hydrodynamic diameter entry in [7] was “about 36 nm”. Moreover, the “CLIO-EPPT nanoparticles bound per cell” value in [8] (125I-labeled, 1 hour incubation) is 10^7-10^8 nanoparticles per cell. Besides, in [8] (cell binding assay, P<0.05), the “accumulation versus uMUC-1-negative tumor or normal cells” value is “significantly more”. The “nanoparticle uptake versus uMUC-1-positive tumor cell lines” value in series [9] was “much lower nanoparticle uptake”.

“synthetic peptide YCAREPPTRTFAYWG (SEQ ID NO: 1) derived from CDR3 Vh region of monoclonal antibody ASM2 (not fully specified (C-terminus); listed as Homo sapiens) [EPPT1]”: the pKd in series [10] is 4.70.

In general, LD50 refers to the dose at which mortality reaches 50%. Lower therefore signals a more toxic substance. The pKd is the negative decadic logarithm of the Kd, by convention in mol/L.

(Values after patent US8349991B2, “Amphiphilic polymers and methods of use thereof” (Massachusetts Institute of Technology, priority 2005, dated 2013).)
